Source: ChEMBL document CHEMBL1201862, “PubChem BioAssay data set” (2004)
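Assay format: 96-well plates, 48-hour exposure. The concentration for 50% growth inhibition is given as GI50.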 Calls of active or inactive are those of the source. Rule as the data show it: active = GI50 up to about 1.1 µM and inactive = higher.

How the values were obtained:
Assay in all cases: inhibition of tumour cell growth, NCI panel, 48 h
[1] = test system: OVCAR-4
[2] = test system: SR
[3] = test system: NCI-H23
[4] = test system: IGROV-1
[5] = test system: OVCAR-5
[6] = test system: EKVX
[7] = test system: SF-539
[8] = test system: NCI-H522
[9] = test system: MOLT-4
[10] = test system: CCRF-CEM
[11] = test system: UACC-62
[12] = test system: M14
[13] = test system: SNB-75
[14] = test system: K562

SMILES	GI50 [1]	GI50 [2]	GI50 [3]	GI50 [4]	GI50 [5]	GI50 [6]	GI50 [7]	GI50 [8]	GI50 [9]	GI50 [10]	GI50 [11]	GI50 [12]	GI50 [13]	GI50 [14]
CC(C)[Si](OCC1CC(C[C@H]2CC(C[C@H]3C[C@@H](CO[Si](C(C)C)(C(C)C)C(C)C)OC(C)(C)O3)OC(C)(C)O2)OC(C)(C)O1)(C(C)C)C(C)C (stereo partly specified)	> 100 µM (inactive)	> 100 µM (inactive)	> 100 µM (inactive)	> 100 µM (inactive)	> 100 µM (inactive)	> 100 µM (inactive)	> 100 µM (inactive)	> 100 µM (inactive)	> 100 µM (inactive)	> 100 µM (inactive)	> 100 µM (inactive)	> 100 µM (inactive)	> 100 µM (inactive)	> 100 µM (inactive)
O=C(Nc1nc2ccc([N+](=O)[O-])cc2s1)C(=O)C(C1OC(=O)c2ccccc21)[N+](=O)[O-] (stereo unspecified)	> 100 µM (inactive)	54.1 µM (inactive)	55.2 µM (inactive)	42.2 µM (inactive)	> 100 µM (inactive)	31.5 µM (inactive)	49.9 µM (inactive)		88.5 µM (inactive)	63.2 µM (inactive)	65.8 µM (inactive)	> 100 µM (inactive)	35.6 µM (inactive)	83.4 µM (inactive)
NC(=S)NNc1c([N+](=O)[O-])cnn(-c2ccccc2)c1=O	17.4 µM (inactive)	4.05 µM (inactive)	19 µM (inactive)	19.1 µM (inactive)	18.4 µM (inactive)		18.8 µM (inactive)	18.7 µM (inactive)	12.6 µM (inactive)		12.1 µM (inactive)	15 µM (inactive)	19.4 µM (inactive)	4.36 µM (inactive)
Cc1ccc(Cl)c(NC(=O)C(=O)C(C(=O)c2ccncc2)C2OC(=O)c3ccccc32)c1 (stereo unspecified)	> 100 µM (inactive)	> 100 µM (inactive)	> 100 µM (inactive)	> 100 µM (inactive)		> 100 µM (inactive)	> 100 µM (inactive)	> 100 µM (inactive)		0.512 µM (active)	> 100 µM (inactive)	> 100 µM (inactive)	> 100 µM (inactive)	> 100 µM (inactive)
O=c1cccccc1NCCCNc1cccccc1=O		> 100 µM (inactive)	> 100 µM (inactive)	> 100 µM (inactive)	> 100 µM (inactive)	> 100 µM (inactive)	> 100 µM (inactive)	> 100 µM (inactive)	> 100 µM (inactive)	> 100 µM (inactive)	> 100 µM (inactive)	> 100 µM (inactive)		> 100 µM (inactive)
COCC(O)CN1C(N)=NC(O)C1O (stereo unspecified)		> 100 µM (inactive)	> 100 µM (inactive)		> 100 µM (inactive)	> 100 µM (inactive)	> 100 µM (inactive)	> 100 µM (inactive)				> 100 µM (inactive)	> 100 µM (inactive)	
COc1cc2c[n+]3ccc4cc(OC)c(OC)cc4c3cc2cc1O		> 100 µM (inactive)	> 100 µM (inactive)	> 100 µM (inactive)	> 100 µM (inactive)	> 100 µM (inactive)	> 100 µM (inactive)	> 100 µM (inactive)	> 100 µM (inactive)	> 100 µM (inactive)	> 100 µM (inactive)	> 100 µM (inactive)	> 100 µM (inactive)	> 100 µM (inactive)
CCOC(=O)NC(=O)c1cn(CCCOC(=O)NCCCCCCNC(=O)OCCCn2c(=O)c(C(=O)NC(=O)OCC)cn(C)c2=O)c(=O)n(C)c1=O	> 100 µM (inactive)		> 100 µM (inactive)	> 100 µM (inactive)	> 100 µM (inactive)			> 100 µM (inactive)	> 100 µM (inactive)	> 100 µM (inactive)	> 100 µM (inactive)	> 100 µM (inactive)	22.2 µM (inactive)	> 100 µM (inactive)
COc1ccc(/C=[N+](\[O-])[C@H](COCc2ccccc2)c2ccccc2)cc1			> 100 µM (inactive)	> 100 µM (inactive)	> 100 µM (inactive)	30.1 µM (inactive)	> 100 µM (inactive)	41.1 µM (inactive)	25.2 µM (inactive)	35.7 µM (inactive)			> 100 µM (inactive)	45.3 µM (inactive)
COc1ccc2oc(-c3cc4cc(OC)ccc4o3)cc2c1	> 100 µM (inactive)		> 100 µM (inactive)	> 100 µM (inactive)	> 100 µM (inactive)	> 100 µM (inactive)		> 100 µM (inactive)	> 100 µM (inactive)	> 100 µM (inactive)	> 100 µM (inactive)	> 100 µM (inactive)	> 100 µM (inactive)	> 100 µM (inactive)
CN(CC(=O)O)S(=O)(=O)c1ccc(F)cc1	> 100 µM (inactive)		> 100 µM (inactive)	> 100 µM (inactive)	> 100 µM (inactive)	> 100 µM (inactive)	> 100 µM (inactive)	> 100 µM (inactive)	> 100 µM (inactive)	> 100 µM (inactive)	> 100 µM (inactive)	> 100 µM (inactive)	> 100 µM (inactive)	> 100 µM (inactive)
CCN(CC)c1ccc(/N=N/c2ccc([N+](=O)[O-])cc2OC(=O)/C=C/c2ccccc2)c(OC(=O)/C=C/c2ccccc2)c1	21 µM (inactive)	4.27 µM (inactive)	12.2 µM (inactive)	18.5 µM (inactive)		5.58 µM (inactive)	2.89 µM (inactive)	23.2 µM (inactive)	5.16 µM (inactive)	3.02 µM (inactive)	8.11 µM (inactive)	12.7 µM (inactive)	8.04 µM (inactive)	> 68.9 µM (inactive)
CCCCN1C(=O)C2c3[nH]c4ccccc4c3C3CCCCC3C2C1=O.CCCCN1C(=O)C2c3[nH]c4ccccc4c3[C@@H]3CCCCC3C2C1=O (stereo unspecified)	2.38 µM (inactive)		16 µM (inactive)	19.1 µM (inactive)		21.4 µM (inactive)	14.8 µM (inactive)		5.69 µM (inactive)	16.4 µM (inactive)	19.1 µM (inactive)	13.4 µM (inactive)	7.11 µM (inactive)	14.7 µM (inactive)
O/N=C(\c1nc2ccc(Cl)cc2nc1O)C(O)c1ccc(Cl)cc1Cl (stereo unspecified)	> 100 µM (inactive)	> 100 µM (inactive)	> 100 µM (inactive)	> 100 µM (inactive)	> 100 µM (inactive)		> 100 µM (inactive)	> 100 µM (inactive)	> 100 µM (inactive)	> 100 µM (inactive)	> 100 µM (inactive)	> 100 µM (inactive)	> 100 µM (inactive)	> 100 µM (inactive)
Cc1ccc(NC(=O)CC2Sc3ccccc3NC2=O)c(C)c1 (stereo unspecified)	22 µM (inactive)		16.2 µM (inactive)	23.6 µM (inactive)	23.3 µM (inactive)	46.7 µM (inactive)	14 µM (inactive)	11.4 µM (inactive)	6.71 µM (inactive)	10.7 µM (inactive)	12.2 µM (inactive)	12.4 µM (inactive)	4.52 µM (inactive)	4.01 µM (inactive)
CC(=O)OC(=O)O/C=C\CCl	> 100 µM (inactive)	42 µM (inactive)		> 100 µM (inactive)			> 100 µM (inactive)	13.7 µM (inactive)	38 µM (inactive)	93.8 µM (inactive)	> 100 µM (inactive)	> 100 µM (inactive)	> 100 µM (inactive)	> 100 µM (inactive)
